PubChem BioAssay AID179 (DTP/NCI, 2004)
Activity calls are given as the source filed them.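 The calls were made as follows: active = compounds giving half or more protection of infected cells from virus-caused growth loss, again on retest; inactive = the rest.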

System: CEM cells HIV-1 protection, formazan growth assay
Experiment: NCI AIDS Antiviral Assay
Details: for IC50: measured here: growth of uninfected CEM cells
In short: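 CEM (human) cells, HIV-1 infected vs uninfected, 5-point dosing, formazan growth read-out. Retest threshold 50% protection.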

CN1C=Nc2c(ncn2C2CCC(CO)O2)C1O (stereo not drawn)
EC50: > 200 µM
IC50: > 200 µM

CCN(CC)c1cccc2c1C1(O)CCC3(CC21)OCCCCO3 (stereo not drawn)
EC50: > 200 µM
IC50: 97.7 µM

CCOC(=O)c1sc2c(C(=O)OCC)c3ccccn3c2c1C
outcome: inactive

C/C(CN1C(=O)c2ccccc2C1=O)=N\NS(C)(=O)=O
EC50: > 851 µM
IC50: 589 µM

O/N=C1\CCCCC1C(NO)c1ccccc1 (stereo not drawn)
EC50: > 398 µM
IC50: 191 µM

COc1cc2c(cc1OC)[C@H]1C(COC(=O)c3ccccc3)CSC(=Nc3ccccc3)N1CC2 (stereo partly drawn)
EC50: > 10.2 µM
IC50: > 10.2 µM

Cc1cccc2c(NCCC[N+](C)(C)[O-])c3c([N+](=O)[O-])ccc(C)c3nc12
EC50: > 100 µM
IC50: 0.372 µM

CC1(C)CC(=O)c2c(nc3ccc4ccccc4c3c2-c2ccc(NC(=O)CCCCCCCCC(=O)Nc3ccc(-c4c5c(nc6ccc7ccccc7c46)CC(C)(C)CC5=O)cc3)cc2)C1
EC50: > 100 µM
IC50: > 100 µM

O=C1OC(=O)c2ccc3c4c(ccc1c24)C(=O)OC3=O
EC50: > 933 µM
IC50: > 933 µM

COc1ccc(-n2c(=O)n(-c3ccccc3)c(=O)n2-c2ccc(OC)cc2)cc1
EC50: > 200 µM
IC50: > 200 µM

COc1ccc2nc(C(=O)c3ccccc3)c(C)cc2c1
EC50: > 25.7 µM
IC50: 17.4 µM

Cn1cnc([N+](=O)[O-])c1Sc1nccn1-c1ccccc1
EC50: > 832 µM
IC50: 9.33 µM

N#CC(=C(c1ccccc1)c1ccccc1)c1ccccc1
EC50: > 151 µM
IC50: > 151 µM

CCCCCCCCCCCOC(=S)NC(C)C
outcome: inactive

CC(=O)OCC1C(OC(C)=O)C(OC(C)=O)C(OC(C)=O)P1(=O)c1ccccc1 (stereo not drawn)
EC50: > 589 µM
IC50: 537 µM

COc1ccc(NC(=O)C2=C(SC)C(=O)N=C2N)cc1
EC50: > 100 µM
IC50: > 100 µM

Cc1ccc2c3c(cnc2n1)C(=O)OCCN3C
EC50: > 200 µM
IC50: > 200 µM

COc1c(Cl)cc(Cl)c(CCCCCCCC(=O)O)c1Cl
EC50: > 100 µM
IC50: > 100 µM

NNC1=Nc2ccccc2N=C2CCSCC21 (stereo not drawn)
EC50: > 200 µM
IC50: 178 µM

NCCCC[C@H](NC(=O)[C@H](CS)NC(=O)[C@@H](N)Cc1cnc[nH]1)C(=O)N[C@H](Cc1ccccc1)C(=O)N[C@@H](Cc1c[nH]c2ccccc12)C(=O)N[C@@H](Cc1c[nH]c2ccccc12)C(N)=O
EC50: > 200 µM
IC50: > 200 µM

CC(=O)c1cc2ccccc2n(O)c1=N
EC50: > 200 µM
IC50: > 200 µM

COc1cc2c(cc1OC)C1C=NC(C(=O)O)(C2)c2ccccc21 (stereo not drawn)
outcome: inactive

CN(C)CCC(O)(Cc1ccccc1)c1ccco1 (stereo not drawn)
EC50: > 200 µM
IC50: 34.7 µM

OC(C1CCCCCCCCCC1)C(O)C1CCCCCCCCCC1 (stereo not drawn)
EC50: > 200 µM
IC50: > 200 µM

O=C(O)CCSC(=S)Nc1ccccc1
outcome: inactive

CCOC(=O)c1c(NS(=O)(=O)c2ccc(C)cc2)sc(C)c1C
EC50: > 200 µM
IC50: 33.9 µM

N#CC1C(=O)Nc2sc(C(=O)c3ccc(Br)cc3)c(N)c2C12CCCCC2 (stereo not drawn)
EC50: > 200 µM
IC50: 11.5 µM

CC1CN=C(Nc2cccc(C(F)(F)F)c2)S1 (stereo not drawn)
EC50: > 200 µM
IC50: 57.5 µM

CCCc1cc(=O)oc2c3c(c4c(c12)OC(C)(C)C=C4)OC(C)[C@H](C)[C@@H]3O (stereo partly drawn)
EC50: 5.01 µM
IC50: 13.8 µM

N#Cc1ccc(S(=O)(=O)c2ccc(C#N)cc2)cc1
EC50: > 200 µM
IC50: > 200 µM

O=C1c2ccccc2C(=C2c3ccccc3C(=O)c3ccccc32)c2ccccc21
outcome: inactive

C#CCCCCCCCCC/C=C1\C[C@H](O)COC1=O
EC50: > 245 µM
IC50: 46.8 µM

Fc1ccc(Nc2nc(Cl)c3[nH]cnc3n2)cc1Cl
EC50: > 200 µM
IC50: > 200 µM

O=C(/C=C/c1cccs1)c1ccc(Cl)cc1
outcome: inactive

O=S(=O)(O)CS(=O)(=O)O
EC50: > 200 µM
IC50: > 200 µM

CO[C@H]1[C@H](O)[C@H](O[C@H]2CC[C@@]3(C)[C@H](CC[C@@H]4[C@@H]3CC[C@]3(C)[C@@H](C5=CC(=O)OC5)CC[C@]43O)C2)O[C@@H](C)[C@@H]1O
outcome: inactive

COc1cc2ccc1OCc1cccc(n1)COc1ccc(cc1OC)C=Nc1ccc(cc1)N=C2
EC50: > 200 µM
IC50: > 200 µM

CC(C)(C)OC(=O)N(CCCN)CCCCN
EC50: > 200 µM

COC(=O)[C@H](Cc1ccccc1)NC(=O)N(CCC#N)CCCCN(CCC#N)C(=O)N[C@@H](Cc1ccccc1)C(=O)OC
EC50: > 200 µM
IC50: 115 µM

OCC1OC(n2cnc3c(Cl)nc(Nc4ccccc4)nc32)CC1O (stereo not drawn)
EC50: > 200 µM
IC50: 28.2 µM

O=C(NC12CC3CC(CC(C3)C1)C2)C(=O)c1c[nH]c2ccc(Br)cc12
EC50: > 200 µM
IC50: 25.7 µM

Cc1ccc(Sc2ccccc2N)cc1
EC50: > 178 µM
IC50: 51.3 µM

COc1cccc(N2C(=O)/C(=C/c3ccc(N(CCC#N)CCC#N)cc3)N=C2c2cc([N+](=O)[O-])ccc2Cl)c1
EC50: > 9.33 µM
IC50: > 9.33 µM

CCOc1cccc(C=Nc2ccccc2SSc2ccccc2N=Cc2cccc(OCC)c2O)c1O
EC50: > 100 µM
IC50: 5.13 µM

CCOC(=O)C1=C(O)c2c(OC)ccc(OC)c2C(=O)C1=O
EC50: > 427 µM
IC50: > 427 µM

COc1cccc(/C=C2\C(=O)N(C(=O)c3ccc(NC(C)=O)cc3)N=C2C)c1
EC50: > 36.3 µM
IC50: > 36.3 µM

COc1ccc2[nH]c3c([N+](=O)[O-])ccc(Cl)c3c(=O)c2c1
outcome: inactive

O/N=C1/CCCCCC1NO (stereo not drawn)
EC50: > 200 µM
IC50: > 200 µM

CCOC(=O)C(=O)C1C(=O)Nc2ccccc21 (stereo not drawn)
EC50: > 398 µM
IC50: 204 µM

O=C(/C=C/c1c(O)ccc2ccccc12)c1ccccc1Cl
EC50: > 56.2 µM
IC50: 28.2 µM

CC(C)(C)OC(=O)N(CCCCNC(=O)OCc1ccccc1)CCCNC(=O)OCc1ccccc1
EC50: > 200 µM
IC50: 4.47 µM

NC(=O)NN=C1CCC(CC2CCCCC2)CC1 (stereo not drawn)
EC50: > 200 µM
IC50: 174 µM

C[C@H](CCC(=O)O)[C@H]1CC[C@H]2[C@@H]3[C@H](O)[C@H](O)[C@@H]4C[C@H](O)CC[C@]4(C)[C@H]3CC[C@]12C
EC50: > 200 µM
IC50: 72.4 µM

Cc1c(C2(c3cc(Br)c(O)c(Br)c3C)OS(=O)(=O)c3ccccc32)cc(Br)c(O)c1Br
outcome: inactive

CCOC(=O)c1cc(C2=CCNC2=O)c(-c2cc(C)no2)[nH]1
EC50: > 200 µM
IC50: 33.1 µM

O=C([O-])[C+](C=Cc1cccc2ccccc12)C(=O)O
EC50: > 708 µM
IC50: 257 µM

CCCCN(CCCC)CC(=O)Nc1ccc(C(=O)OCC(C)C)cc1
EC50: > 200 µM
IC50: > 200 µM

Cc1ccc(NC(=S)Nc2ccc(C)cn2)nc1
EC50: > 200 µM
IC50: > 200 µM

CCOC(=O)c1c(N)sc(C)c1C
EC50: > 200 µM
IC50: 117 µM

CC(C)(C)COc1ccc2c(c1)-c1nc-2nc2[nH]c(nc3nc(nc4[nH]c(n1)c1ccc(OCC(C)(C)C)cc41)-c1cc(OCC(C)(C)C)ccc1-3)c1ccc(OCC(C)(C)C)cc21
EC50: > 8.32 µM
IC50: > 8.32 µM

ClCCC1OC(CCCl)OC(CCCl)O1 (stereo not drawn)
EC50: > 200 µM
IC50: > 200 µM

CC1CN=C(N(C(=O)Nc2ccccc2)c2ccc(Cl)c(Cl)c2)S1 (stereo not drawn)
EC50: > 200 µM
IC50: 138 µM

O=C1CCC2(c3ccc(F)cc3)Nc3ncccc3N12 (stereo not drawn)
EC50: > 132 µM
IC50: > 132 µM

CCC1(c2ccc(N3C(=O)c4cccc5cc([N+](=O)[O-])cc(c45)C3=O)cc2)CCC(=O)NC1=O (stereo not drawn)
EC50: > 151 µM
IC50: 13.5 µM

CC(=O)[O-].[Mn+3].[O-]c1ccccc1C=NCCNCCN=Cc1ccccc1[O-]
EC50: > 182 µM
IC50: 10.5 µM

CCCCN(CCCC)CCNc1ccc(Cl)c2oc3cc(C)ccc3c(=O)c12
EC50: > 21.9 µM
IC50: > 21.9 µM

CN1CN(C(=O)N2CN(C)C(=O)N(C)C2)CN(C)C1=O
EC50: > 158 µM
IC50: > 158 µM

O=C(/C=C/C(=O)N1CCCC1)N1CCCC1
EC50: > 200 µM
IC50: > 200 µM

CC[C@@H]1CC2CC3c4[nH]c5ccccc5c4CCN(C2)C31 (stereo partly drawn)
outcome: inactive

CCCCCC1OC1(c1cc(Br)c(OC)c(C(=O)OC)c1)c1cc(Br)c(OC)c(C(=O)OC)c1 (stereo not drawn)
EC50: > 200 µM
IC50: 67.6 µM

c1ccc(-c2nc3cc4c(cc3n3cccc23)oc2ccccc24)cc1
EC50: > 100 µM
IC50: 85.1 µM

O=c1ccc2ccc(OP(=O)(O)O)cc2o1
EC50: > 200 µM
IC50: > 200 µM

CC1(C)/C=C/CC2(C)Oc3ccccc3C[C@@H]2CCC2(C)Oc3ccccc3C[C@@H]2C1 (stereo partly drawn)
EC50: > 12 µM
IC50: > 12 µM

O=C1OC(=O)C2C3C=CC(C12)C1C2C=CC2C31 (stereo not drawn)
outcome: inactive

C/C(C=C(C#N)C#N)=C\c1ccc([N+](=O)[O-])cc1
EC50: > 11.5 µM
IC50: > 11.5 µM

O=C1c2cccc(O)c2C(=O)c2c(O)cccc21
EC50: > 30.2 µM
IC50: > 30.2 µM

CCOc1cc2c(cc1OC)c[n+](C)c1c3cc(OC)c(OC)cc3ccc21
outcome: inactive

COc1cccc(/C=C2\CCc3ccccc3C2=O)c1
EC50: > 14.5 µM
IC50: > 14.5 µM

COc1ccc(OC)c(C(Cc2ccnc3ccccc23)Cc2ccnc3ccccc23)c1
EC50: > 200 µM
IC50: 26.3 µM

COC(=O)/C1=C/C2CC(/C=C(/c3ccccc3)C(=O)O1)C2
outcome: inactive

O=c1[nH]c(=O)n(C2CCC(COP(=O)(O)O)O2)cc1Cc1ccccc1 (stereo not drawn)
EC50: > 468 µM
IC50: > 468 µM

COc1ccc(/C=C2\Cc3ccccc3C2=O)cc1OC
EC50: > 35.5 µM
IC50: > 35.5 µM

COc1ccc2oc3c4c2c1CCC4CCC3=O (stereo not drawn)
outcome: inactive

COC(=O)CC(=O)Nc1sccc1S(=O)(=O)c1ccccc1
EC50: > 200 µM
IC50: 102 µM

Cn1ccnc1.Cn1ccnc1.[O-][Cl+3]([O-])([O-])[O-].[Pt+2].c1ccc(-c2ccccn2)nc1
EC50: > 200 µM
IC50: > 200 µM

Cc1ccc2c(c1)N=C(Nc1ccccc1)N=S2(C)=O (stereo not drawn)
outcome: inactive

N=c1c2c(ncn1N)CCN(Cc1ccccc1)C2
EC50: > 200 µM
IC50: 30.9 µM

Nc1ccn(CC(=O)NCCCO)c(=O)n1
EC50: > 200 µM
IC50: > 200 µM

O=C(O)/C(Cl)=C(\Cl)C(=O)Nc1ccccc1
outcome: inactive

CC(C)(C)OC(=O)N1CCCC1C(=O)NC(c1ccccc1)c1ccccc1 (stereo not drawn)
EC50: > 200 µM
IC50: > 200 µM
